This note sets out measurements from ChEMBL document CHEMBL5120829, “Discovery and structural optimization of potent epidermal growth factor receptor (EGFR) inhibitors against L858R/T790M/C797S resistance mutation for lung cancer treatment” (Eur J Med Chem, 2022).

Assay [1] relates to Epidermal growth factor receptor (Homo sapiens), P00533 [L858R,T790M,C797S]. Briefly: Inhibition of EGFR L858R/T790M/C797S mutant (unknown origin) at 0.5 uM relative to control.
Assay [2] has the same test system. Briefly: Inhibition of EGFR L858R/T790M/C797S mutant (unknown origin) at 1 uM relative to control.
Assay [3] concerns PC-9. Briefly: Antiproliferative activity against human PC-9 cells expressing EGFR L858R/T790M/C797S mutant assessed as inhibition of cell growth incubated for 72 hrs by CCK-8 assay. The format is functional, cell-based. The settings on record: PC-9, 72 h.
The next assay relates to A-431. Briefly: Antiproliferative activity against human A-431 cells assessed as inhibition of cell growth incubated for 72 hrs by CCK-8 assay. The format is functional, cell-based. The settings on record: A-431, 72 h.
The next assay deals with A549. Briefly: Antiproliferative activity against human A549 cells assessed as inhibition of cell growth incubated for 72 hrs by CCK-8 assay. The format is functional, cell-based. The settings on record: A549, 72 h.
Assay [4] has as its system PC-9. Briefly: Induction of apoptosis in human PC-9 cells expressing EGFR L858R/T790M/C797S mutant assessed as viable cells at 0.25 uM incubated for 24 hrs by annexin-V/propidium iodide staining-based flow cytometry analysis (reference value: 99.1 %). The format is functional.
Assay [5] concerns PC-9. Briefly: Induction of apoptosis in human PC-9 cells expressing EGFR L858R/T790M/C797S mutant assessed as early apoptotic cells at 0.25 uM incubated for 24 hrs by annexin-V/propidium iodide staining-based flow cytometry analysis (reference value: 0.3 %). The format is functional.
Assay [6] relates to PC-9. Briefly: Induction of apoptosis in human PC-9 cells expressing EGFR L858R/T790M/C797S mutant assessed as late apoptotic cells at 0.25 uM incubated for 24 hrs by annexin-V/propidium iodide staining-based flow cytometry analysis (reference value: 0.14 %). The format is functional.
The test system of assay [7] is PC-9. Briefly: Induction of apoptosis in human PC-9 cells expressing EGFR L858R/T790M/C797S mutant assessed as dead cells at 0.25 uM incubated for 24 hrs by annexin-V/propidium iodide staining-based flow cytometry analysis (reference value: 0.43 %). The format is functional.
Assay [8] deals with Epidermal growth factor receptor (Homo sapiens, UniProt P00533, C797S/L858R/T790M). Briefly: Inhibition of EGFR L858R/T790M/C797S mutant (unknown origin).
Epidermal growth factor receptor, sequence (P00533 25-1210 T790M/C797S/L858R limits assumed): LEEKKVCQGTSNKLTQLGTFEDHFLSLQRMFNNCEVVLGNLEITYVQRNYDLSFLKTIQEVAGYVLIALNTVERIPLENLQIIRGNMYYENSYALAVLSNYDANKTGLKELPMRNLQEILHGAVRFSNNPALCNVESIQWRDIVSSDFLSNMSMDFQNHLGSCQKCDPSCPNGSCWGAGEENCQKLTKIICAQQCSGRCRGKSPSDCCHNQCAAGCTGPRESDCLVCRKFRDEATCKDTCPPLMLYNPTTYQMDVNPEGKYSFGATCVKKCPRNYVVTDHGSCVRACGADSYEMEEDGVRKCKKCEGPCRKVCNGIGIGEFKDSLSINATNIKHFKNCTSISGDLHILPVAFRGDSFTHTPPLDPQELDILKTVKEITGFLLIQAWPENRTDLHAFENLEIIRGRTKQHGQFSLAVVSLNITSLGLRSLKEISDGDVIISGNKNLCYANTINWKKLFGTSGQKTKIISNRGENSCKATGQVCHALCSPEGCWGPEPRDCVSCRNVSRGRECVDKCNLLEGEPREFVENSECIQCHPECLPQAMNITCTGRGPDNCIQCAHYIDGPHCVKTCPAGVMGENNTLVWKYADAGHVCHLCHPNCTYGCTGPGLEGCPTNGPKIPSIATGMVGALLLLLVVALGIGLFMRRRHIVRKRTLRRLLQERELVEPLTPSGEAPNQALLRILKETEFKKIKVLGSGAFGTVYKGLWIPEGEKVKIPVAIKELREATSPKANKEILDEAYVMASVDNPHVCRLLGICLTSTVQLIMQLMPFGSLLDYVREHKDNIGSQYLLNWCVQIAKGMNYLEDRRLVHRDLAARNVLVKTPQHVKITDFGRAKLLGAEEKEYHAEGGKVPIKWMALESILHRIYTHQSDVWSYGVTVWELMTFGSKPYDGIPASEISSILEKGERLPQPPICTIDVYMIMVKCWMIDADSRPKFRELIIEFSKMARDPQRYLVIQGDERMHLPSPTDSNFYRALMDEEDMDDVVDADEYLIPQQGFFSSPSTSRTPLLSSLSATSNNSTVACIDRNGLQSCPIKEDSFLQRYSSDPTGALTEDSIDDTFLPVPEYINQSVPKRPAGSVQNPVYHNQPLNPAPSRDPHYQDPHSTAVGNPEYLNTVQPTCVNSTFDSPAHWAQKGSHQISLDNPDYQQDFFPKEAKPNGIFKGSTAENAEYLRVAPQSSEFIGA

Epidermal growth factor receptor (Homo sapiens), P00533 [L858R,T790M,C797S], sequence (P00533 whole entry T790M/C797S/L858R): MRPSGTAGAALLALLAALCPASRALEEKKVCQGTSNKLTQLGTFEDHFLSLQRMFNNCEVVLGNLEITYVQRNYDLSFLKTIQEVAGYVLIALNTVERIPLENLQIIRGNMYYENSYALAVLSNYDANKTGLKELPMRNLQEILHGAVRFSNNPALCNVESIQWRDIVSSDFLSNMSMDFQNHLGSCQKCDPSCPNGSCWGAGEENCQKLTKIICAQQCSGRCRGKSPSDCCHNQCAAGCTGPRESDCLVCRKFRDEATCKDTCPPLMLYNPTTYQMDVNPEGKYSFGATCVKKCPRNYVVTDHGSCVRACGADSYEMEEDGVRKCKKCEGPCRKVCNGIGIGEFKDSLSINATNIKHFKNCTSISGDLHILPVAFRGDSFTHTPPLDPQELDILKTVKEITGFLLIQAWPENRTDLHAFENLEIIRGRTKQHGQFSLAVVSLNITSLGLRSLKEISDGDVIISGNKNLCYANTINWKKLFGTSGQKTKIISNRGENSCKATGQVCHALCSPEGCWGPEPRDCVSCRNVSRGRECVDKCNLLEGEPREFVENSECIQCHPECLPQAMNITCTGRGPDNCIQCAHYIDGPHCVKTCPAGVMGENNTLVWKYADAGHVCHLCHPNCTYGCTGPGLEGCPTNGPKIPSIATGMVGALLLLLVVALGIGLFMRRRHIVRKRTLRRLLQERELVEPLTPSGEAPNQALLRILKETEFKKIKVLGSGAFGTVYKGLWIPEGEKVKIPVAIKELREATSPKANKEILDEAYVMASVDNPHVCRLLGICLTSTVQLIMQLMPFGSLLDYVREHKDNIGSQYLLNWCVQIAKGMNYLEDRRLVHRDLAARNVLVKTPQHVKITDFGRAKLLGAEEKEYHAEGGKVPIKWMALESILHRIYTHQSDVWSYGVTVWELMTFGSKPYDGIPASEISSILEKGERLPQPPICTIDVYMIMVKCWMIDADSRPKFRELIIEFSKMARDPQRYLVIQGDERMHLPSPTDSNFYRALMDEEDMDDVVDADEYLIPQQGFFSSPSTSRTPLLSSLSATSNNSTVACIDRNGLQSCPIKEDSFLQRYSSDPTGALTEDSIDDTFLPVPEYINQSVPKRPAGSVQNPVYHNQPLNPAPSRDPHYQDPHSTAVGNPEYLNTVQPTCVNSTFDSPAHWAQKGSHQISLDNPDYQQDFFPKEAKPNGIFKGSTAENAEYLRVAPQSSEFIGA

On to `C=CC(=O)Nc1cc(Nc2ncc3cc(C(=O)Nc4ccc(F)c(Cl)c4)n(C4CCCC4)c3n2)c(OC)cc1N(C)CCN(C)C`, for which the inhibition in [1] was 8.1%; in assay [2], 10%.

As to `C=CC(=O)Nc1cc(Nc2ncc3cc(C(=O)Nc4cccc(C)c4)n(C4CCCC4)c3n2)c(OC)cc1N(C)CCN(C)C`, the inhibition was 6.7% in [1] and 14% in [2].

Turning to `C=CC(=O)Nc1cc(Nc2ncc3cc(C(=O)NC4CCCCC4)n(C4CCCC4)c3n2)c(OC)cc1N(C)CCN(C)C`, the inhibition in [1] turned out to be 4.8%; in assay [2], 6.5%.

Consider `C=CC(=O)Nc1cc(Nc2ncc3cc(C(=O)Nc4cc(OC)c(OC)c(OC)c4)n(C4CCCC4)c3n2)c(OC)cc1N(C)CCN(C)C`, for which the inhibition came to 3.1% in [1] and 5.3% in assay [2].

On to `C=CC(=O)Nc1cc(Nc2ncc3cc(CNc4c(C)cccc4C)n(C4CCCC4)c3n2)c(OC)cc1N(C)CCN(C)C`, for which the inhibition amounted to 23% in [1] and 40% in [2].

Take `C=CC(=O)Nc1cc(Nc2ncc3cc(CNc4cccc(OC)c4)n(C4CCCC4)c3n2)c(OC)cc1N(C)CCN(C)C`: the inhibition in [1] turned out to be 41%; in assay [2], 56%.

Regarding `C=CC(=O)Nc1cc(Nc2ncc3cc(C(=O)Nc4ccnc(C)c4)n(C4CCCC4)c3n2)c(OC)cc1N(C)CCN(C)C`, the inhibition is -10% in [1] and 8.3% in [2].

For `C=CC(=O)Nc1cc(Nc2ncc3cc(C(=O)Nc4cccc(OC(F)(F)F)c4)n(C4CCCC4)c3n2)c(OC)cc1N(C)CCN(C)C`, the values for the inhibition in [1] and in assay [2] were -1.9% and 0.6%, respectively.

For the molecule `C=CC(=O)Nc1cc(Nc2ncc3cc(C(=O)Nc4cccc(C#N)c4)n(C4CCCC4)c3n2)c(OC)cc1N(C)CCN(C)C`, the inhibition came out at 3.7% in [1] and 3% in [2].

Take `C=CC(=O)Nc1cc(Nc2ncc3cc(C(=O)Nc4cccc(C(F)(F)F)c4)n(C4CCCC4)c3n2)c(OC)cc1N(C)CCN(C)C`: the inhibition in assay [1] worked out at 4.7%; in assay [2] it was 10%.

With `C=CC(=O)Nc1cc(Nc2ncc3cc(C(=O)Nc4cccc(OC)c4)n(C4CCCC4)c3n2)c(OC)cc1N1CCOCC1`, the inhibition in assay [1] is 1.4%; in assay [2], 3.2%.

On to `C=CC(=O)Nc1cc(Nc2ncc3cc(C(=O)Nc4ccc(OC)c(OC)c4)n(C4CCCC4)c3n2)c(OC)cc1N(C)CCN(C)C`, for which the values for the inhibition in [1] and in assay [2] were 7.3% and 8.7%, respectively.

With `C=CC(=O)Nc1cc(Nc2ncc3cc(C(=O)Nc4ccnc(OC)c4)n(C4CCCC4)c3n2)c(OC)cc1N(C)CCN(C)C`, the inhibition was -2.6% in assay [1] and 4.1% in assay [2].

Consider `C=CC(=O)Nc1cc(Nc2ncc3cc(C(=O)Nc4ccccc4)n(C4CCCC4)c3n2)c(OC)cc1N1CCN(C(C)C)CC1`, for which the inhibition in [1] worked out at 18%; in assay [2] it was 21%.

For the molecule `C=CC(=O)Nc1cc(Nc2ncc3cc(C(=O)NC4CCCc5ccccc54)n(C4CCCC4)c3n2)c(OC)cc1N(C)CCN(C)C` (stereo not drawn), the inhibition came out at 13% in assay [1] and 23% in assay [2].

For the molecule `C=CC(=O)Nc1cc(Nc2ncc3cc(C(=O)Nc4cccc(OC)c4)n(C4CCCC4)c3n2)c(OC)cc1N1CCC(N(C)C)CC1`, the figures for the inhibition in [1] and in assay [2] were 15% and 16%, respectively.

`C=CC(=O)Nc1cc(Nc2ncc3cc(CNc4cccc(C)c4)n(C4CCCC4)c3n2)c(OC)cc1N(C)CCN(C)C`: the figures for the inhibition in assay [1] and in assay [2] were 48% and 61%, respectively.

As to `C=CC(=O)Nc1cc(Nc2ncc3cc(C(=O)Nc4ccccc4)n(C4CCCC4)c3n2)c(OC)cc1N(C)CCN(C)C`, the inhibition in assay [1] turned out to be 18%; in assay [2], 26%.

For `C=CC(=O)Nc1cc(Nc2ncc3cc(C(=O)Nc4cccc(OC)c4)n(C4CC4)c3n2)c(OC)cc1N(C)CCN(C)C`, the inhibition in assay [1] was determined as 7%; in assay [2], 7.8%.

With `C=CC(=O)Nc1cc(Nc2ncc3cc(C(=O)Nc4ccccc4OC)n(C4CCCC4)c3n2)c(OC)cc1N(C)CCN(C)C`, the inhibition in assay [1] was 7.5%; in assay [2] it was 18%.

As to `C=CC(=O)Nc1cc(Nc2ncc3cc(C(=O)Nc4ccc(OC)cc4)[nH]c3n2)c(OC)cc1N(C)CCN(C)C`, the inhibition in assay [1] came to 2.8%; in [2] it was 9.5%.

For the molecule `C=CC(=O)Nc1cc(Nc2ncc3cc(C(=O)Nc4cccc(OC)c4)n(C)c3n2)c(OC)cc1N(C)CCN(C)C`, the inhibition in assay [1] is -5%; in assay [2], -1.3%.

As for `C=CC(=O)Nc1cc(Nc2ncc3cc(C(=O)Nc4ccc5c(c4)OCO5)n(C4CCCC4)c3n2)c(OC)cc1N(C)CCN(C)C`, the results for the inhibition in [1] and in assay [2] were 0.5% and 13%, respectively.

As to `C=CC(=O)Nc1cc(Nc2ncc3cc(C(=O)Nc4cccc(OC)c4)n(C4CCCCC4)c3n2)c(OC)cc1N(C)CCN(C)C`, the inhibition worked out at 1.1% in [1] and 4.9% in assay [2].

As for `C=CC(=O)Nc1cc(Nc2ncc3cc(C(=O)Nc4ccccc4)n(C4CCCC4)c3n2)c(OC)cc1N1CCC(N2CCN(C)CC2)CC1`, the inhibition in [1] stood at 16%; in [2], 20%.

With `C=CC(=O)Nc1cc(Nc2ncc3cc(C(=O)Nc4cccc(OC)c4)n(-c4ccccc4)c3n2)c(OC)cc1N(C)CCN(C)C`, the inhibition in [1] turned out to be 4.1%; in assay [2], 6%.

As to `C=CC(=O)Nc1cc(Nc2nccc(-c3cn(C)c4ccccc34)n2)c(OC)cc1N(C)CCN(C)C` [OSIMERTINIB], the half-maximal inhibitory concentration (IC50) in the assay with PC-9 [3] amounted to 3250 nM; with A-431, […]; with A549, 784 nM. Also, the Activity in the assay on PC-9 [4] is listed as 90.3%; in the assay with PC-9 [5], 3.83%; in the assay on PC-9 [6], 4.75%; in the assay with PC-9 [7] it was 1.1%.

In the case of `C=CC(=O)Nc1cc(Nc2ncc3cc(C(=O)Nc4cccc(N(C)C)c4)n(C4CCCC4)c3n2)c(OC)cc1N(C)CCN(C)C`, the inhibition in assay [1] amounted to 12%; in assay [2] it was 16%.

In the case of `C=CC(=O)Nc1cc(Nc2ncc3cc(C(=O)Nc4ccccc4)n(C4CCCC4)c3n2)c(OC)cc1N1CCN(C)CC1`, the inhibition in assay [1] and in assay [2] was 23% each time.

On to `CN(C)CCN(C)c1ccc(Nc2ncc3cc(CNc4ccccc4)n(C4CCCC4)c3n2)cc1`, for which the figures for the inhibition in assay [1] and in [2] were 88% and 90%, respectively. Moreover, the IC50 worked out at 304 nM in [8], 248 nM with PC-9 [3], 1120 nM in the assay on A-431 and 426 nM in the assay with A549.

`COc1cc(N2CCC(N(C)C)CC2)ccc1Nc1ncc2cc(CNc3ccccc3)n(C3CCCC3)c2n1`: the inhibition in assay [1] worked out at 80%; in assay [2], 83%. In addition, the IC50 was determined as 10 nM in assay [8], 261 nM in the assay on PC-9 [3], 3080 nM with A-431 and 1630 nM in the assay with A549.

As for `C=CC(=O)Nc1cc(Nc2ncc3cc(C(=O)Nc4cccc(O)c4)n(C4CCCC4)c3n2)c(OC)cc1N(C)CCN(C)C`, the inhibition is 5.2% in assay [1] and 22% in assay [2].

On to `C=CC(=O)Nc1cc(Nc2ncc3cc(C(=O)Nc4cccc(OC)c4)n(C(C)C)c3n2)c(OC)cc1N(C)CCN(C)C`, for which the inhibition in [1] was 9.3%; in [2], 12%.

For `C=CC(=O)Nc1cc(Nc2ncc3cc(C(=O)Nc4cccc(OC)c4)n(C4CCCC4)c3n2)c(OC)cc1N1CCN(CCOC)CC1`, the inhibition was -2.3% in [1] and -0.3% in [2].

Take `C=CC(=O)Nc1cc(Nc2ncc3cc(C(=O)Nc4ccccc4)n(C4CCCC4)c3n2)ccc1N1CCN(C)CC1`: the inhibition in assay [1] was 21%; in assay [2] it was 37%.

For the molecule `C=CC(=O)Nc1cc(Nc2ncc3cc(CNc4cc(C)cc(C)c4)n(C4CCCC4)c3n2)c(OC)cc1N(C)CCN(C)C`, the values for the inhibition in [1] and in assay [2] were -1.4% and -8.4%, respectively.

With `COc1cc(N2CCC(N3CCN(C)CC3)CC2)ccc1Nc1ncc2cc(CNc3ccccc3)n(C3CCCC3)c2n1`, the values for the inhibition in assay [1] and in [2] were 78% and 82%, respectively. Besides, the IC50 in assay [8] is 55 nM; with PC-9 [3], 206 nM; in the assay with A-431 it was 3150 nM; in the assay on A549, 2980 nM.

Consider `C=CC(=O)Nc1cc(Nc2ncc3cc(C(=O)Nc4cccc(OC)c4)n(C4CCCC4)c3n2)c(OC)cc1N(C)CCN(C)C`, for which the inhibition worked out at 11% in [1] and 17% in assay [2].
